Reference: ChEMBL document CHEMBL6134901 (J Med Chem, 2025)
The source made the active and inactive calls. The calls are words filed in the database; no cut-off is given here.

Tests used:
[1] = Binding affinity to bacterial SleC assessed as dissociation constant by MST assay; parameters: species or system Bacteria
[2] = AUC (0 to 24 hrs) in ICR mouse at 30 mg/kg, po measured for 1 to 24 hrs by UPLC analysis; type: ADME, organism-based; details: in vivo, time 1-24 hrs
[3] = test system: Bacillus subtilis; assay: Inhibition of Bacillus subtilis sacculi-derived SleC
[4] = Cmax in ICR mouse at 30 mg/kg, po measured for 1 to 24 hrs by UPLC analysis; type: ADME, organism-based; details: in vivo, time 1-24 hrs
[5] = test system: Bacteroides fragilis; assay: Antibacterial activity against Bacteroides fragilis HM-709; type: functional
[6] = test system: Bacteria; assay: Binding affinity to bacterial CspA assessed as dissociation constant by MST assay
[7] = Terminal half life in ICR mouse at 30 mg/kg, po measured for 1 to 24 hrs by UPLC analysis; type: ADME, organism-based; details: in vivo, time 1-24 hrs, read-out: beta t1/2 (converted)
[8] = test system: Clostridioides difficile; assay: Antibacterial activity against Clostridium difficile ATTC43255 assessed as inhibition of vegetative cells; type: functional, organism-based
[9] = test system: Limosilactobacillus reuteri; assay: Antibacterial activity against vancomycin-susceptible Lactobacillus reuteri HM-102 clinical isolate; type: functional
[10] = test system: Klebsiella pneumoniae; assay: Antibacterial activity against Klebsiella pneumoniae ATCC 700603; type: functional
[11] = Binding affinity to bacterial CspB assessed as dissociation constant by MST assay; parameters: species or system Bacteria
[12] = test system: Staphylococcus haemolyticus; assay: Antibacterial activity against Staphylococcus haemolyticus ATCC 29970; type: functional
[13] = Binding affinity to bacterial pro-SleC assessed as dissociation constant by MST assay; parameters: species or system Bacteria
[14] = Drug uptake in blood of ICR mouse assessed as drug absorption from intestines at 30 mg/kg, po measured for 1 to 24 hrs by UPLC analysis; type: ADME, organism-based; details: in vivo, time 1-24 hrs
[15] = test system: Bacteria; assay: Binding affinity to bacterial CspC assessed as dissociation constant by MST assay
[16] = test system: Bacteria; assay: Binding affinity to bacterial GerS assessed as dissociation constant by MST assay
[17] = Cmax in feces of Golden Syrian hamster at 5 mg/kg, po bid measured for 5 days; type: ADME, organism-based, Mesocricetus auratus; details: faeces, time 5 day
[18] = Cytotoxicity against human HepG2 cells incubated for 24 hrs by XTT assay; type: toxicity, cell-based; details: read-out: LD50
[19] = test system: Clostridioides difficile; assay: Antibacterial activity against metronidazole-resistant Clostridium difficile […] clinical isolate; type: functional
[20] = test system: Escherichia coli; assay: Antibacterial activity against Escherichia coli ATCC 25922; type: functional
[21] = Drug concentration in feces of ICR mouse at 30 mg/kg, po measured after 8 hrs by UPLC analysis; type: ADME, organism-based; details: faeces, read-out: Ct
[22] = test system: Enterococcus faecalis; assay: Antibacterial activity against Enterococcus faecalis ATCC 29212; type: functional
[23] = Binding affinity to bacterial cwID assessed as dissociation constant by MST assay; parameters: species or system Bacteria
[24] = test system: Acinetobacter baumannii; assay: Antibacterial activity against Acinetobacter baumannii ATCC 17961; type: functional
[25] = Drug concentration in feces of ICR mouse at 30 mg/kg, po measured after 24 hrs by UPLC analysis; type: ADME, organism-based; details: in vivo
[26] = test system: Clostridioides difficile; assay: Post-antibiotic effect in Clostridium difficile ATTC43255 assessed as spore germination inhibition at 60 uM incubated for 1 hr followed by fresh medium replacement without compound measured up to 8 hrs; type: functional, organism-based
[27] = test system: Clostridioides difficile; assay: Antibacterial activity against Clostridium difficile ATTC43255 assessed as spore germination inhibition at 45 uM incubated for 60 mins by spectrometry relative to control; type: functional; details: ATTC43255, 1 h
[28] = test system: Pseudomonas aeruginosa; assay: Antibacterial activity against Pseudomonas aeruginosa ATCC 27853; type: functional
[29] = test system: Clostridioides difficile; assay: Antibacterial activity against Clostridium difficile ATTC43255 assessed as spore germination inhibition incubated for 60 mins by spectrometry; type: functional, organism-based
[30] = Drug concentration in kidney of Golden Syrian hamster at 5 mg/kg, po bid measured after 8 hrs; type: ADME, organism-based, Mesocricetus auratus; details: read-out: Ct
[31] = test system: Eubacterium sp.; assay: Antibacterial activity against Eubacterium sp. HM-178; type: functional
[32] = test system: Staphylococcus aureus; assay: Inhibition of Staphylococcus aureus COL PBP1 at 5 ug/ml measured for 24 hrs by absorbance based assay; details: dose 5.0 µg/ml
[33] = Drug concentration in liver of Golden Syrian hamster at 5 mg/kg, po bid measured after 8 hrs; type: ADME, organism-based, Mesocricetus auratus; details: read-out: Ct
[34] = test system: Staphylococcus aureus; assay: Inhibition of Staphylococcus aureus COL PBP2 at 5 ug/ml measured for 24 hrs by absorbance based assay; details: dose 5.0 µg/ml
[35] = test system: Clostridioides difficile; assay: Antibacterial activity against Clostridium difficile ATTC43255 assessed as inhibition of vegetative cells in presence of vancomycin; type: functional, organism-based
[36] = test system: Veillonella; assay: Antibacterial activity against Veillonella sp. HM-49; type: functional
[37] = test system: Clostridioides difficile; assay: Antibacterial activity against Clostridium difficile BAA1870 assessed as spore germination inhibition; type: functional, organism-based
[38] = test system: Bacteria; assay: Binding affinity to bacterial prepro-SleC assessed as dissociation constant by MST assay
[39] = test system: Klebsiella aerogenes; assay: Antibacterial activity against Enterobacter aerogenes ATCC 35029; type: functional
[40] = Drug concentration in brain of Golden Syrian hamster at 5 mg/kg, po bid measured after 8 hrs; type: ADME, organism-based, Mesocricetus auratus; details: read-out: Ct
[41] = test system: Clostridioides difficile; assay: Inhibition of spore cortex degradation in Clostridium difficile assessed as greenish-blue spheres at 50 uM by Wirtz-Conklin staining based analysis; type: functional, organism-based

Cl.NCc1ccc(-c2nc(-c3ccnc(Oc4ccc(C(F)(F)F)cc4)c3)no2)cc1
Kd [1]: 12 µM | AUC(0-t) [2]: 17000 ng·h/mL | inhibition [3]: Active | Cmax [4]: 1440 ng/mL | MIC [5]: 32 µg/mL | Activity [6]: inactive | half-life [7]: 6.3 h | IC50 [8]: 46.2 µM | MIC [9]: 32 µg/mL | MIC [10]: > 128 µg/mL | Kd [11]: 8 µM | MIC [12]: 8 µg/mL | Kd [13]: 16 µM | Drug uptake [14]: Active | Activity [15]: inactive | Activity [16]: inactive | Cmax [17]: ~4000 ng/g | CC50 at 24 h [18]: 51 µg/mL | MIC [19]: 16 µg/mL | MIC [20]: > 128 µg/mL | concentration at 8 h [21]: 11000 ng/g | MIC [22]: 4 µg/mL | Kd [23]: 54 µM | MIC [24]: > 128 µg/mL | Ct [25]: Below_limit_of_detection | inhibition [26]: Active | inhibition at 45 µM [27]: 84% | MIC [28]: > 128 µg/mL | inhibition [29]: Dose-dependent-effect | IC50 ([29]; ATTC43255, 1 h): 14 µM | concentration at 8 h [30]: 56000 ng/g | MIC [31]: 16 µg/mL | inhibition [32]: Active | concentration at 8 h [33]: 5600 ng/g | inhibition [34]: Active | IC50 [35]: 22.7 µM | MIC [36]: > 128 µg/mL | IC50 [37]: 13 µM | Activity [38]: inactive | MIC [39]: > 128 µg/mL | concentration at 8 h [40]: 15000 ng/g | inhibition [41]: Active
